Patent publication US5444042A, “Method of treatment of neurodegeneration with calpain inhibitors” (Cortex Pharmaceuticals, priority 1994, dated 1995)
Entries after “also recorded” stand apart in the source; their conditions may differ. Where two headings read alike, the source gives them in different places. Where a SMILES comes first, the peptide text is derived from it. The star is where a group is joined. Boc = CC(C)(C)OC(=O)*; CH2Cl = ClC*

Experiments:
Calpain within platelets = assay: Platelet membrane permeation assay, spectrin proteolysis (Examples 4A, 4B); assay type: cell-based, rat; settings: for inhibition of Calpain within platelets: 100 μM, A23187 1 μM; for IC50: concentration at which 50% of the Calpain activation present in controls occurred
In short: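 Rat (Sprague-Dawley) platelets at 10^7 cells/ml in HEPES buffer pH 7.4, preincubated 5 min with inhibitor, then 5 min with 1 μM A23187 to activate calpain. Spectrin proteolysis assessed by SDS-PAGE and anti-spectrin immunoblot, quantified by densitometry.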

[1] = system: Calpain in crude brain extracts; assay: Ca2+-stimulated spectrin proteolysis in crude brain extracts (Example 2); assay type: biochemical; settings: for inhibition of spectrin proteolysis in crude brain extracts: 100 μM
In short: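 Brain tissue was homogenized in 10 mM Tris pH 7.4, 0.32 M sucrose, 1 mM EGTA and 1 mM DTT, and nuclei and debris were removed. Calpain activity was scored as Ca^2+-stimulated proteolysis of endogenous spectrin.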

[2] = biological target: T1, calpain II from rabbit muscle (Oryctolagus cuniculus, UniProt P06814); assay: Calpain II Ki (Table 1B(i)); assay type: biochemical
T1 sequence (P06814 1-422): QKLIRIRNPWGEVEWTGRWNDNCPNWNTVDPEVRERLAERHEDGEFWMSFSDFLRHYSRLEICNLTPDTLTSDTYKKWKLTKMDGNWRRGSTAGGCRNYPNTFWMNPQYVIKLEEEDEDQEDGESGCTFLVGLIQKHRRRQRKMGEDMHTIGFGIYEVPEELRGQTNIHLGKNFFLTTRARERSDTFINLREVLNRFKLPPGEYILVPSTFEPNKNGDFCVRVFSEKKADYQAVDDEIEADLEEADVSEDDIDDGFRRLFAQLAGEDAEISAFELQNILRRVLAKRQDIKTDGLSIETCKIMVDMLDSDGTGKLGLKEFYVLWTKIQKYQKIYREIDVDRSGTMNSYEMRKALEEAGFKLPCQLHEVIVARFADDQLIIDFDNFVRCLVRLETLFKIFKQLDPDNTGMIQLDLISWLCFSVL
T1 sequence (P06813 1-266 partner): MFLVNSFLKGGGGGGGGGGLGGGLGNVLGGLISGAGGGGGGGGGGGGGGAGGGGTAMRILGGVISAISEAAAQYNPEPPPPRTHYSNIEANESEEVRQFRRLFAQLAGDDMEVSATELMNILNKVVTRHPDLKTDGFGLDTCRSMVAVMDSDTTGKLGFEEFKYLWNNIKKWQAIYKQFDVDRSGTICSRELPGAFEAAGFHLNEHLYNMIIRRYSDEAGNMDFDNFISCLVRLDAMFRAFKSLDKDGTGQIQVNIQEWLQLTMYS
Protocol: The Peptide Keto-Compounds are reversible inhibitors of Calpains and other thiol proteases. […] Cathepsin B from bovine spleen was assayed using Z-[…]-nitrophenylphosphate as substrate. […] The Ki value for the inhibition of Calpains and cathepsin B by several Peptide Keto-Compounds are shown in μM (micromolar). The values for leupeptin, which is commercially available from Calbiochem of La Jolla, Calif., are shown for comparison.

N18-RE-105 cells = assay: Glutamate-induced cell death, MTT conversion (Example 5); assay type: cell-based; settings: 5 mM glutamate, 19 hours; for blue formazan product relative to control without glutamate: inhibitor 3 μg/ml
Protocol: Stock cultures of N18-RE-105 cells were maintained in Dulbecco's modified Eagle's medium (DMEM) containing 10% fetal bovine serum (FBS) and supplemented with hypoxanthine, aminopterin and thymidine (HAT). Subconfluent cultures were split and plated into 96-well plates. Twenty-four hours after plating the cells were exposed to fresh media containing glutamate and various concentrations of Calpain inhibitors. Control cells were not treated with glutamate. Conversion of MTT was measured 19 hours later as described. Nineteen hours after the onset of exposure, cell viability was quantitated by measuring the extent to which the cells convert 3(4,5-dimethylthiazol-2-yl)-2-5-diphenyltetrazolium bromide (MTT) to a blue formazan product, which occurs in the mitochondria of living but not dead cells (Pauwels et al., 1988). A higher absorbance is indicative of greater cell viability.

[3] = Suc-Leu-Tyr-amidomethylcoumarin, HEPES pH 7.2, read-out: Ki Calpain II

Row | SMILES | inhibition of Calpain within platelets (Calpain within platelets) | inhibition of spectrin proteolysis in crude brain extracts [1] | Ki [2, 3] [nM] | blue formazan product relative to control without glutamate (N18-RE-105 cells) [%] | IC50 (Calpain within platelets) [µM] | effect on intracellular (platelet) Calpain (Calpain within platelets; concentration not given) | Ki [2] [nM] | protection against glutamate toxicity (N18-RE-105 cells; leupeptin 5 μg/ml) | inhibition in the system of Example 2 ([1]; concentration not given)
1 | CCC(NC(=O)[C@@H]1CCCN1C(=O)[C@H](C)NC(=O)[C@H](C)NC(=O)CCC(=O)OC)C(=O)C(=O)OC (mixture of isomers) [MeO-Suc-Ala-Ala-Pro-Abu-COOMe, MeO-Suc-Ala-Ala-Pro-DL-Abu-CO2 Me] | significant inhibition | significant inhibition |  |  |  |  |  |  | 
2 | CCOC(=O)C(=O)C(CC)NC(=O)[C@H](C)NC(=O)[C@H](C)NC(=O)OCc1ccccc1 (mixture of isomers) [Z-Ala-Ala-DL-Abu-COOEt, Z-Ala-Ala-DL-Abu-CO2 Et] | significant inhibition | significant inhibition | 200000 | ≥ 100 |  |  |  |  | 
3 | CCOC(=O)C(=O)[C@H](CC)NC(=O)[C@H](CC(C)C)NC(=O)OCc1ccccc1 (racemic) [Z-Leu-Abu-COOEt, Z-Leu-DL-Abu-COOEt] | significant inhibition | significant inhibition | 400 |  | 42 |  |  |  | 
4 | CCCC(NC(=O)[C@H](CC(C)C)NC(=O)OCc1ccccc1)C(=O)C(=O)OCC (mixture of isomers) [Z-Leu-Nva-COOEt, Z-Leu-DL-Nva-COOEt] | significant inhibition | significant inhibition | 1200 |  | 40 |  |  |  | 
5 | CC(C)CC(NC(=O)CNC(=O)OC(C)(C)C)C(=O)NC(Cc1ccccc1)C(=O)CCl (stereo not drawn) [Boc-Gly-Leu-Phe-CH2 Cl] (Boc-Gly-Leu-Phe-CH2Cl; configuration not given here) | significant inhibition | significant inhibition |  |  |  |  |  |  | 
6 | N=C(N)SCCCOc1oc(=O)c2ccccc2c1Cl [CiTprOIC, 4-chloro-3-(3-isothiureidopropoxy)isocoumarin] | significant inhibition | significant inhibition |  | ≥ 100 |  |  |  |  | 
7 | CC(=O)N[C@@H](CC(C)C)C(=O)N[C@@H](CC(C)C)C(=O)N[C@H](C=O)CCCNC(=N)N [Leupeptin, Ac-Leu-Leu-Arg-H, reference compound] |  |  |  |  |  | little effect; also recorded: failed to exhibit Calpain inhibitory activity | 430 | protect N18-RE-105 cells against glutamate toxicity | showed inhibition
8 | N=C(N)SCCCOc1oc(=O)c2cc(N)ccc2c1Cl [NH2 -CiTPrOIC (ACITIC), 7-amino-4-chloro-3-(3-isothiureidopropoxy)isocoumarin] | significant inhibition | significant inhibition |  | ≥ 100 |  |  |  |  | 
9 | CCCCC(NC(=O)C(CC(C)C)NC(=O)OCc1ccccc1)C(=O)C(=O)OCC (stereo not drawn) [Z-Leu-Nle-COOEt, Z-Leu-NLeu-CO2 Et] | significant inhibition | significant inhibition | 180 |  | 20 |  |  |  | 
10 | CCOC(=O)C(=O)C(Cc1ccccc1)NC(=O)C(CC(C)C)NC(=O)OCc1ccccc1 (stereo not drawn) [Z-Leu-Phe-COOEt] | significant inhibition | significant inhibition | 400 |  | 42 |  |  |  | 
